According to patent publication US10463644B2, “Uses of sesquiterpene lactone compounds and their derivatives in drugs preparation” (ACCENDATECH, priority 2013, dated 2019):
Where two headings read alike, the source gives them in different places.

What was measured:
[1] = system: IL-1β secreted by synoviocyte; test: Content of IL-1β in culture supernatant of synoviocyte of RA model rats given test compound; format: in vivo; settings: rat RA model, dose 30 mg/kg.2d; normal control 0.16 ± 0.034, NaCl 0.49 ± 0.136
Outline: (§1)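 RA model rats received test compound at 30 mg/kg.2d, with normal control and NaCl groups run in parallel. Synoviocytes were then cultured from the animals, and the culture supernatant was assayed for secreted cytokine or PGE2.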

[2] = system: PGE2 secreted by synoviocyte; test: Content of PGE2 in culture supernatant of synoviocyte of RA model rats given test compound; format: in vivo; settings: rat RA model, dose 30 mg/kg.2d; normal control 8.34 ± 1.29, NaCl 32.44 ± 10.32
Outline: as §1

[3] = system: cancer stem cells; test: Survival rate of cancer stem cells after test compound is added (flow cytometry, Annexin V-FITC/PI, clinical specimen); format: cell-based, patient; settings: Homo sapiens, 18 h
Excerpt: (§2) Take fresh or cryopreserved clinical specimen (acute myelogenous leukemia (AML, marker is CD34^+/CD38^+), chronic myelogenous leukemia (CML, Ph+/CD34+/CXCR4+), chronic lymphocytic leukemia (CLL,CD133+/CD19−/CD38−), skin cancer (CD34+), breast cancer (CD44+/CD24−/ESA+), ovarian cancer (CD44+/CD117+), brain tumor (CD133+) prostate cancer (CD44+/CD24−), head-neck squamous cell carcinoma (CD44+), laryngeal cancer (CD133+), pancreatic cancer (ESA+/CD44+/CD24+), retinoblastoma (ABCG2/ALDH1), Children hepatoblastoma (CD34+/THY1+/c-kit+), liver cancer (CD133+), malignant melanoma (CD133+), colorectal cancer (EpCAM^high/CD44+), colon adenocarcinoma (CD44^high), glioma (ABCG-2/BCRP1), gastrointestinal tumor (ABCG-2/BCRP1), nasopharynx cancer (ABCG2), brain glioma (Dlk-1/Pref-1), gastric cancer (CD45+), lung adenocarcinoma (Sca-1/CD45-/Pecam-/CD34+), lung cancer (CD133+CD34+CD44+)) of patient. Take the acute myelogenous leukemia as the example, conduct density gradient centrifugation with Ficoll and take out the middle mononuclear cells, re-suspend it with serum-free IMDM after centrifuged. Adjust the concentration of cells into 1×10^6/mL and lay 24-well plate with 1 mL in each well, and then treat 18 hours with the compound to select with corresponding concentration. Collect the cells and centrifuge them at 1500 rps for 8 minutes, re-suspend the precipitation with […], mark the antibodies related to leukemia stem cell, avoid light to incubate 30 minutes at room temperature and then centrifuge it at 1500 rps, then wash away the unbound antibody CD34^+CD38^+. Re-suspend it with 100 μl 1× Binding Buffer and add respectively 5 μl Annexin V-FITC and PI, then avoid light to incubate 15 minutes before add 200 μl 1× Binding Buffer, then use flow cytometry to examine the marked apoptosis within one hour.

[4] = system: cancer cells; test: Survival rate of cancer cells after test compound is added (flow cytometry, Annexin V-FITC/PI, clinical specimen); format: cell-based, patient; settings: Homo sapiens, 18 h, read-out: Survival rate (%) All cells (Stem cells and ordinary cells)
Excerpt: as §2

[5] = system: normal cells; test: Survival rate of normal cells after test compound is added (flow cytometry, Annexin V-FITC/PI); format: cell-based; settings: 18 h
Excerpt: as §2

[6] = Head and neck squamous cell carcinomas
[7] = read-out: Survival rate (%) All cells (Stem cells and ordinary cells)
[8] = read-out: Survival rate (%) Stem cells

[2H][C@@]1(CN(C)C)C(=O)O[C@@H]2[C@@H]3[C@@H](CCC34CC4)C3(CC[C@H]21)CC3 [Compound 46]
86%: viability at 10 µM ([3]; Colorectal cancer) | viability at 20 µM ([4]; Breast cancer) | viability at 20 µM ([4]; CML) | viability at 20 µM ([4]; Colon adenocarcinoma) | viability at 20 µM ([4]; Gastrointestinal tumor) | viability at 20 µM ([4]; Lung adenocarcinoma)
74%: viability at 20 µM ([3]; AML) | viability at 20 µM ([3]; Colon adenocarcinoma)
83%: viability at 20 µM ([4]; Laryngeal cancer) | viability at 20 µM ([4]; Liver cancer)
88%: viability at 10 µM ([3]; Brain glioma) | viability at 10 µM ([3]; Brain tumor) | viability at 10 µM ([4]; AML) | viability at 10 µM ([4]; CLL) | viability at 20 µM ([4]; Children hepatoblastoma) | viability at 20 µM [4, 6] | viability at 10 µM ([4]; Lung cancer) | viability at 10 µM ([4]; Nasopharynx cancer) | viability at 10 µM ([4]; Ovarian cancer) | viability at 10 µM ([4]; Pancreatic cancer)
95%: viability at 10 µM [5, 7]
92%: viability at 20 µM ([4]; Colorectal cancer) | viability at 10 µM ([4]; Malignant melanoma) | viability at 10 µM ([4]; Skin cancer) | viability at 20 µM [5, 8]
89%: viability at 20 µM ([4]; Brain glioma) | viability at 20 µM ([4]; Brain tumor) | viability at 10 µM ([4]; Breast cancer) | viability at 20 µM ([4]; CLL) | viability at 10 µM ([4]; Colon adenocarcinoma) | viability at 10 µM ([4]; Gastrointestinal tumor) | viability at 20 µM ([4]; Lung cancer) | viability at 20 µM ([4]; Malignant melanoma) | viability at 20 µM ([4]; Skin cancer)
84%: viability at 10 µM ([3]; Children hepatoblastoma) | viability at 10 µM ([3]; Colon adenocarcinoma) | viability at 10 µM [3, 6] | viability at 20 µM ([4]; Glioma)
85%: viability at 10 µM ([3]; CML) | viability at 10 µM ([3]; Lung adenocarcinoma) | viability at 10 µM ([3]; Malignant melanoma) | viability at 10 µM ([3]; Pancreatic cancer) | viability at 10 µM ([3]; Skin cancer) | viability at 20 µM ([4]; AML) | viability at 20 µM ([4]; Pancreatic cancer)
73%: viability at 20 µM ([3]; Retinoblastoma)
93%: viability at 10 µM ([4]; CML) | viability at 10 µM ([4]; Colorectal cancer) | viability at 10 µM ([4]; Lung adenocarcinoma)
75%: viability at 20 µM ([3]; Glioma) | viability at 20 µM ([3]; Laryngeal cancer) | viability at 20 µM ([3]; Liver cancer)
78%: viability at 20 µM ([3]; Children hepatoblastoma) | viability at 20 µM ([3]; Colorectal cancer) | viability at 20 µM [3, 6]
82%: viability at 10 µM ([3]; AML) | viability at 10 µM ([3]; Breast cancer) | viability at 10 µM ([3]; CLL) | viability at 10 µM ([3]; Gastrointestinal tumor) | viability at 10 µM ([3]; Lung cancer) | viability at 10 µM ([3]; Retinoblastoma)
0.36 ± 0.067 ng/mL: Content of IL-1β in culture supernatant of synoviocyte (x ± s) [1]
94%: viability at 10 µM ([4]; Gastric cancer) | viability at 10 µM ([4]; Prostate cancer) | viability at 10 µM [5, 8] | viability at 20 µM [5, 7]
76%: viability at 20 µM ([3]; Breast cancer) | viability at 20 µM ([3]; CLL) | viability at 20 µM ([3]; Gastric cancer) | viability at 20 µM ([3]; Gastrointestinal tumor) | viability at 20 µM ([3]; Lung cancer) | viability at 20 µM ([3]; Prostate cancer)
91%: viability at 10 µM ([4]; Brain glioma) | viability at 10 µM ([4]; Brain tumor) | viability at 10 µM ([4]; Children hepatoblastoma) | viability at 10 µM ([4]; Glioma) | viability at 10 µM [4, 6] | viability at 10 µM ([4]; Retinoblastoma)
81%: viability at 20 µM ([3]; Brain glioma) | viability at 20 µM ([3]; Brain tumor) | viability at 10 µM ([3]; Laryngeal cancer) | viability at 10 µM ([3]; Liver cancer) | viability at 20 µM ([4]; Nasopharynx cancer) | viability at 20 µM ([4]; Ovarian cancer)
77%: viability at 20 µM ([3]; Malignant melanoma) | viability at 20 µM ([3]; Skin cancer)
24.74 ± 2.64 ng/mL: Content of PGE2 in culture supernatant of synoviocyte (x ± s) [2]
79%: viability at 20 µM ([3]; CML) | viability at 20 µM ([3]; Lung adenocarcinoma) | viability at 10 µM ([3]; Nasopharynx cancer) | viability at 10 µM ([3]; Ovarian cancer) | viability at 20 µM ([3]; Pancreatic cancer)
72%: viability at 20 µM ([3]; Nasopharynx cancer) | viability at 20 µM ([3]; Ovarian cancer)
87%: viability at 10 µM ([3]; Gastric cancer) | viability at 10 µM ([3]; Glioma) | viability at 10 µM ([3]; Prostate cancer) | viability at 20 µM ([4]; Gastric cancer) | viability at 10 µM ([4]; Laryngeal cancer) | viability at 10 µM ([4]; Liver cancer) | viability at 20 µM ([4]; Prostate cancer) | viability at 20 µM ([4]; Retinoblastoma)
